Data taken from patent publication US7674594B2, “Screening assay for inhibitors of TRPA1 activation by a lower alkyl phenol” (Redpoint Bio Corporation, priority 2006, dated 2010).
Read-outs that look alike come from different tables or passages of the source.

Legend:
[1] = system: mice; test: Taste aversion (lick) assay in mice; assay type: in vivo, mouse
Description: In this assay, the ability of identified lower alkyl phenols to evoke taste aversion in mice was measured. Mice were exposed to increasing concentrations of lower alkyl phenols.

[2] = molecular target: T1, hTRPA1 (Homo sapiens, UniProt O75762); test: Membrane potential dye fluorescence assay (FLIPR/FLEXstation), activation of hTRPA1 in transfected HEK293 cells; assay type: cell-based
T1 construct: The full length hTRPA1 was amplified by PCR with Kpn1 and Xho1 restriction enzyme sites; expressed in transfected cells; also transient transfection
T1 sequence (O75762 whole entry): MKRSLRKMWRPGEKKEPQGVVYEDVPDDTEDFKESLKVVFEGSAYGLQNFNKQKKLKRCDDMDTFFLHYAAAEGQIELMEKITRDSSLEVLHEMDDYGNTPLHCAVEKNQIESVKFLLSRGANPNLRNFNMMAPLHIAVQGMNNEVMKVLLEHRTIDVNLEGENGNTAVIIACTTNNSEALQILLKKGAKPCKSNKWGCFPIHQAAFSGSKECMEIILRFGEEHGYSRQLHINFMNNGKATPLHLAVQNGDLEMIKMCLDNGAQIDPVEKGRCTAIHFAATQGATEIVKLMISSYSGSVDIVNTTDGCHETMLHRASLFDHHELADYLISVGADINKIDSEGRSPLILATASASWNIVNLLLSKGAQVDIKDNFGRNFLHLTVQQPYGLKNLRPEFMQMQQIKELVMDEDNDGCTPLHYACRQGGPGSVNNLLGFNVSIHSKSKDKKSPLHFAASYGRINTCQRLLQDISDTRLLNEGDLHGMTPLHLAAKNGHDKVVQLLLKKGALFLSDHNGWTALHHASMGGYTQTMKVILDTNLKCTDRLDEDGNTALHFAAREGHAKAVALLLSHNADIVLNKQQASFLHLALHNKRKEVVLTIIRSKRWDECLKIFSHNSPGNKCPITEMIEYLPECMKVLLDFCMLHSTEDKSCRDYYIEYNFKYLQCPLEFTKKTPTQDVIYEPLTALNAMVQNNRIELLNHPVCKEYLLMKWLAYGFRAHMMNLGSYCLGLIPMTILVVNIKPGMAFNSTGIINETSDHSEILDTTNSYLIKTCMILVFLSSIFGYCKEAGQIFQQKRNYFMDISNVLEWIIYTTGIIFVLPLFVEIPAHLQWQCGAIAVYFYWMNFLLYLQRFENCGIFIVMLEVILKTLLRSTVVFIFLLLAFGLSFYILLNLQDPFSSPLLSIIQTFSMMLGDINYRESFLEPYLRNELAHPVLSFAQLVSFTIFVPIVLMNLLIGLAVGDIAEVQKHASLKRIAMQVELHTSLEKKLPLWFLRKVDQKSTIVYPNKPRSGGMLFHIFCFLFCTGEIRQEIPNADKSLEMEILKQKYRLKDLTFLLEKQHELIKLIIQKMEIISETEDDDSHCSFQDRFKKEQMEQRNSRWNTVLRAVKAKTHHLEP
Description: Once expression of TRPA1 was confirmed, 100 μl of the Blue or Red FMP dye (Molecular Devices) was added to each well of plates seeded with the transiently transfected cells. The plate was then incubated in a 37° C./5% CO2 incubator for 1 hour. The plate was read in a FLEXStation microplate reader (Molecular Devices) with an excitation of 530 nm and an emission of 565 nm. The fluorescence was monitored for 3 minutes upon exposure of the cells to a TRPA1 activating agent (e.g., cinnamaldehyde).
(§1) Samples in a 384-well plate were evaluated in a 5 minute assay on the FLIPR-Tetra™ (Molecular Devices). The assay was performed on a FLIPR™ using the excitation 510-545 nm and emission 565-625 nm filter sets. TRPA1-Transfected HEK cells, 15,000/well, were seeded overnight on poly-D-lysine coated 384 well plates in 20 μl media. Membrane Potential Assay Dye Red (Molecular Devices), 20 μl/well, was added and the plates incubated for 1 hour in a 37° C. and 5% CO2 incubator. The plates were then removed from the incubator and equilibrated to room temperature for 15 minutes before reading on the FLIPR®. The plates were read on the FLIPR® for a total of 3 minutes. Baseline fluorescence was obtained on the FLIPR® for 10 seconds followed by addition (typically 10 μl) of each agonist by the FLIPR® and read for an additional 2 minutes and 50 seconds.

[3] = molecular target: T2, hTRPM4B (Homo sapiens, UniProt Q8TD43); test: Membrane potential dye fluorescence assay, CHO cells expressing hTRPM4B; assay type: cell-based
T2 construct: expressed in transfected cells
T2 sequence (Q8TD43 whole entry): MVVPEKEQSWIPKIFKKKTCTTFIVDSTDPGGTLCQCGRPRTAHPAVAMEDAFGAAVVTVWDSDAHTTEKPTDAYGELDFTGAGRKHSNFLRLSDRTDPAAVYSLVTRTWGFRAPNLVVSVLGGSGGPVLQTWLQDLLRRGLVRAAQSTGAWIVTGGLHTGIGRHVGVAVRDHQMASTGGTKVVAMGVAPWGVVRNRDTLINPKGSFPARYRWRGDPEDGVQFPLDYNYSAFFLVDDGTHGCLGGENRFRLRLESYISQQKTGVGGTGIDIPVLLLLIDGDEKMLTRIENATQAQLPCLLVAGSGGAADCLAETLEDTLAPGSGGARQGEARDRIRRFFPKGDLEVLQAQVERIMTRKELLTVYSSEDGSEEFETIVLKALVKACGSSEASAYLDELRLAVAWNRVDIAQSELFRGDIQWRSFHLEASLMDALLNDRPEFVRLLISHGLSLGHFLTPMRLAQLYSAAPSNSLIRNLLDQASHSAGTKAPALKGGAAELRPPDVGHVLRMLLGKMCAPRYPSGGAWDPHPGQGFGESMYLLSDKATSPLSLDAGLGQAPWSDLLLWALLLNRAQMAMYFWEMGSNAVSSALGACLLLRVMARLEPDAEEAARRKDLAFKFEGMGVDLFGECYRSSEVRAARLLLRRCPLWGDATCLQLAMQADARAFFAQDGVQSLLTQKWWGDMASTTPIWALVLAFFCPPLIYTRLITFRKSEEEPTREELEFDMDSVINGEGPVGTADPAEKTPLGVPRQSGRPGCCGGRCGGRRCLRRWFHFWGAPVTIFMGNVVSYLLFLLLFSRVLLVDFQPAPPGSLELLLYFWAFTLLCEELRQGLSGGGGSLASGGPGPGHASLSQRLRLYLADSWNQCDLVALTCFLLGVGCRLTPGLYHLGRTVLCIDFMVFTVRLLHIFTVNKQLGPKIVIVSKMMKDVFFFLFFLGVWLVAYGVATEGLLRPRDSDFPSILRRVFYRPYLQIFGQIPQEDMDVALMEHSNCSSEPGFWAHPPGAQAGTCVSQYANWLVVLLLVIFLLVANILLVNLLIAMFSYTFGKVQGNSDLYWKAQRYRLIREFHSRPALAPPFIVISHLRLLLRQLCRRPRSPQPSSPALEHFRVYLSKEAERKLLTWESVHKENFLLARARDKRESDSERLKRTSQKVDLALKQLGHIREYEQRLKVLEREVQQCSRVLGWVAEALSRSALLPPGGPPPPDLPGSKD
Description: as §1
(§2) HEK293 cells were stably transfected with one of hTRPA1, hTRPV1 or hTRPM5. CHO cells were stably transfected with one of hTRPM4B or TRPM5. Parental HEK293 and CHO cells were also used as a negative control.

[4] = molecular target: T3, hTRPV1 (Homo sapiens, UniProt Q8NER1); test: Membrane potential dye fluorescence assay, HEK293 cells expressing hTRPV1; assay type: cell-based
T3 construct: expressed in transfected cells
T3 sequence (Q8NER1 whole entry): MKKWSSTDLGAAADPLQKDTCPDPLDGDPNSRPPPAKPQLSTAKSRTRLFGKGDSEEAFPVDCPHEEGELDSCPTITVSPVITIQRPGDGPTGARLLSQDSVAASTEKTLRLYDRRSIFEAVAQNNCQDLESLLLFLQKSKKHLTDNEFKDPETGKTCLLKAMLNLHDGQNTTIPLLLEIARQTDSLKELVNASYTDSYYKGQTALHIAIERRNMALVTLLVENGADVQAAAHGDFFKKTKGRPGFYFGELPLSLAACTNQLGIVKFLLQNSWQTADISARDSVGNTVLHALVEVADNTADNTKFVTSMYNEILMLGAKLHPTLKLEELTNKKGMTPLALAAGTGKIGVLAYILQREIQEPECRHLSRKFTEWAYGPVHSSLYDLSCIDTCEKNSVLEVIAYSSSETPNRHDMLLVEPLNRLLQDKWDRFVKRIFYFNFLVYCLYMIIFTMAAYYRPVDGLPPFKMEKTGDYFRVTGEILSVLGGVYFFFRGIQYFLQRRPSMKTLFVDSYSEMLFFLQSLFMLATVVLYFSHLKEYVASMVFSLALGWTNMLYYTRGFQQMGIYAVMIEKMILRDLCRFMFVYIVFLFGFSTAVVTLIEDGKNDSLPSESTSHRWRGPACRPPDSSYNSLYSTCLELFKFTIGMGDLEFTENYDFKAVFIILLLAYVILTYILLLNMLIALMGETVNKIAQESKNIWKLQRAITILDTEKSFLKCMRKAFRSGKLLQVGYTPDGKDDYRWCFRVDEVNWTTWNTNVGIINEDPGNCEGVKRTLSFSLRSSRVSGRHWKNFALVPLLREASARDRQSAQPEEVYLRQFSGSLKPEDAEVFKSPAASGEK
Description: as §1, §2

[5] = system: parental HEK293 cells; test: Membrane potential dye fluorescence assay in parental (non-transfected) HEK293 cells; assay type: cell-based, human
[6] = molecular target: T4, hTRPM5 (Homo sapiens, UniProt Q9NZQ8); test: Membrane potential dye fluorescence assay, HEK293 or CHO cells expressing hTRPM5; assay type: cell-based
T4 construct: expressed in transfected cells
T4 sequence (Q9NZQ8 1-1165): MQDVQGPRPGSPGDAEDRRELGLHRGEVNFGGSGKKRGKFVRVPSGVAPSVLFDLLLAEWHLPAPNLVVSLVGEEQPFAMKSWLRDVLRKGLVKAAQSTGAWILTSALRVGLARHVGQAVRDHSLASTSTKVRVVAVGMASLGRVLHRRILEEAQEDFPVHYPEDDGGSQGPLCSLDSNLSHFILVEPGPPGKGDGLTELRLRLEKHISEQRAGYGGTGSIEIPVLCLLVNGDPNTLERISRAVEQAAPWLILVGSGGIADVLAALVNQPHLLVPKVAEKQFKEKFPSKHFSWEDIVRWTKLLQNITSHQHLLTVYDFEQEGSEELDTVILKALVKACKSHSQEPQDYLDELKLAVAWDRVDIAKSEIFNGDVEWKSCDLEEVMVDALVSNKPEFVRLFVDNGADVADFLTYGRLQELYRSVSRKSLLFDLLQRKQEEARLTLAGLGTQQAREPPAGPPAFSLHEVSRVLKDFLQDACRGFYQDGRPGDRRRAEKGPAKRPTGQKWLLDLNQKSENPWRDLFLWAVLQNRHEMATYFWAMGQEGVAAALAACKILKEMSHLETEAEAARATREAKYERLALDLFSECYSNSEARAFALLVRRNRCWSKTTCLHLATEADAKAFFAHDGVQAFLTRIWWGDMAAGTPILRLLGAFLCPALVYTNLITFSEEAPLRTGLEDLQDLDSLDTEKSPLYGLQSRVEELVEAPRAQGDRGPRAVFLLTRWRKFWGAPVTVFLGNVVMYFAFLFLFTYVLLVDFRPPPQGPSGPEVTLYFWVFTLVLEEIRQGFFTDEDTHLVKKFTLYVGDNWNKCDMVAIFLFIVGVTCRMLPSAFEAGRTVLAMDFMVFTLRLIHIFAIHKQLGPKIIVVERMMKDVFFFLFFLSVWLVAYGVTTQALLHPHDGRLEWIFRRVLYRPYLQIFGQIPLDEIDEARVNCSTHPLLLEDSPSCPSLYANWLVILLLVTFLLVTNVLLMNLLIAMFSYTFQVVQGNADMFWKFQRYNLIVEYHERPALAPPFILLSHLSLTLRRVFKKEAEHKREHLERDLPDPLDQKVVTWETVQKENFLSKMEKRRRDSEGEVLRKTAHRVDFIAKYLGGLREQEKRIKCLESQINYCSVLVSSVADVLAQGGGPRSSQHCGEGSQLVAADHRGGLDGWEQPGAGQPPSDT
Description: as §1, §2

[7] = molecular target: T1, hTRPA1; test: Modulation of agonist-activated TRPA1 in CHO cells expressing hTRPA1 (membrane potential dye); assay type: cell-based
Description: as §1
(§3) Appropriate control experiments are performed and can easily be determined by the skilled artisan.
(§4) HEK293 cells and CHO cells expressing TRPA1 were subjected to the assay described in Example 2.

[8] = molecular target: T1, hTRPA1; test: Modulation of agonist-activated TRPA1 in HEK293 cells expressing hTRPA1 (membrane potential dye); assay type: cell-based; conditions: HEK293 cells
Description: as §1, §3, §4

[9] = HEK293 cells stably transfected with hTRPA1, FMP dye, FLIPR
[10] = hTRPA1 HEK293 cells, increase in fluorescence of membrane potential dye
[11] = CHO, increasing concentrations, FIG. 6
[12] = HEK293, increasing concentrations, FIG. 6
[13] = increasing concentrations, FIG. 6

Cc1ccc(C)c(O)c1 [2,5-dimethylphenol]
taste aversion, licks/trial (in words) ([1]; mice, increasing concentrations): a decrease in licks/trial | EC50 [2, 9]: 52 ± 29 µM | TRPA1 activation / agonist activity (in words) [2, 10]: generated an increase in relative fluorescence | response of cells expressing hTRPM4B (in words) [3, 11]: did not generate the same increase in relative fluorescence | response of cells expressing hTRPV1 (in words) [4, 12]: did not generate the same increase in relative fluorescence | response of parental HEK293 cells (in words) ([5]; cells not expressing TRPA1): no response | response of cells expressing hTRPM5 (in words) [6, 13]: did not generate the same increase in relative fluorescence

Cc1cccc(C)c1O [2,6-dimethylphenol]
EC50 [2, 9]: 66 ± 22 µM | TRPA1 activation / agonist activity (in words) [2, 10]: generated an increase in relative fluorescence | response of cells expressing hTRPM4B (in words) [3, 11]: did not generate the same increase in relative fluorescence | response of cells expressing hTRPV1 (in words) [4, 12]: did not generate the same increase in relative fluorescence | response of parental HEK293 cells (in words) ([5]; cells not expressing TRPA1): no response | response of cells expressing hTRPM5 (in words) [6, 13]: did not generate the same increase in relative fluorescence

Cc1ccc(C(C)(C)C)c(O)c1 [2-tert-butyl-5-methylphenol]
EC50 [2, 9]: 4 ± 2 µM | TRPA1 activation / agonist activity (in words) [2, 10]: generated an increase in relative fluorescence | response of cells expressing hTRPM4B (in words) [3, 11]: did not generate the same increase in relative fluorescence | response of cells expressing hTRPV1 (in words) [4, 12]: did not generate the same increase in relative fluorescence | response of parental HEK293 cells (in words) ([5]; cells not expressing TRPA1): background fluorescence | response of cells expressing hTRPM5 (in words) [6, 13]: did not generate the same increase in relative fluorescence

Cc1ccc(O)cc1C [3,4-dimethylphenol]
response of parental HEK293 cells (in words) ([5]; cells not expressing TRPA1): no response

CC12CCC(CC1=O)C2(C)C (centres unmarked) [Camphor]
TRPA1 activation / agonist activity (in words) [2, 10]: has no agonist activity | TRPA1 activation / agonist activity (in words) ([2]; hTRPA1 HEK293 cells, increase in fluorescence of membrane potential dye, listed as camphor): are TRPA1 agonists | inhibition of allyl isothiocyanate activated TRPA1 (in words) [7]: potentially inhibits | inhibition of cinnamaldehyde activated TRPA1 (in words) [7]: potentially inhibits | inhibition of thymol activated TRPA1 (in words) [7]: fully inhibits | inhibition of allyl isothiocyanate activated TRPA1 (in words) [8]: fully inhibited | inhibition of cinnamaldehyde activated TRPA1 (in words) [8]: fully inhibited | inhibition of thymol activated TRPA1 (in words) [8]: fully inhibited | inhibition of thymol activated TRPA1 (in words) ([8]; listed as camphor): agonists of thymol activation of TRPA1

CC1(C)[C@@H]2C[C@H]1[C@@](C)(O)[C@@H](O)C2 [Pinanediol]
TRPA1 activation / agonist activity (in words) [2, 10]: Neither isomer (+ shown) had a significant agonist activity until 10 mM | inhibition of thymol activated TRPA1 (in words) [8]: both inhibited TRPA1 activation at 1 mM

CC(C)c1cccc(C(C)C)c1O [Propofol]
taste aversion, licks/trial (in words) ([1]; mouse, in vivo): a decrease in licks/trial | EC50 [2]: 13 ± 6 µM | TRPA1 activation / agonist activity (in words) [2]: generated an increase in relative fluorescence | response of cells expressing hTRPM4B (in words) [3]: did not generate the same increase in relative fluorescence | response of cells expressing hTRPV1 (in words) [4]: did not generate the same increase in relative fluorescence | response of parental HEK293 cells (in words) [5]: background fluorescence | response of cells expressing hTRPM5 (in words) [6]: did not generate the same increase in relative fluorescence
